Values of other authors, collected in US20130121963A1, “N-PHENYL-2-PYRIMIDINEAMINE DERIVATIVES” (Concert Pharmaceuticals Inc., priority 2008, published 2013).

Cc1ccc(NC(=O)c2ccc(CN3CCNCC3)cc2)cc1Nc1nccc(-c2cccnc2)n1 [N-demethylated piperazine derivative]
half-life (from the FDA label for imatinib): 40 h | plasma AUC of the metabolite relative to that of the parent (percent of the parent (imatinib) plasma AUC, from the FDA label): approximately 15%
